# Legend:
# human SGLT1 = biological target: T1, human SGLT1 (Homo sapiens, UniProt P13866); assay: SGLT1 in vitro assay: Na-dependent 14C-AMG uptake in CHO-K1 cells stably expressing human SGLT1; format: cell-based; conditions: CHO-K1 cells stably expressing human SGLT1, 14C-AMG uptake; for inhibition at 0.3 µM: read-out: SGLT1 % Inh @ 0.3 μM; for IC50: compounds of formula (I) where R0 is fluoro
# T1 construct: expressed in transfected cells
# T1 sequence (P13866 1-664): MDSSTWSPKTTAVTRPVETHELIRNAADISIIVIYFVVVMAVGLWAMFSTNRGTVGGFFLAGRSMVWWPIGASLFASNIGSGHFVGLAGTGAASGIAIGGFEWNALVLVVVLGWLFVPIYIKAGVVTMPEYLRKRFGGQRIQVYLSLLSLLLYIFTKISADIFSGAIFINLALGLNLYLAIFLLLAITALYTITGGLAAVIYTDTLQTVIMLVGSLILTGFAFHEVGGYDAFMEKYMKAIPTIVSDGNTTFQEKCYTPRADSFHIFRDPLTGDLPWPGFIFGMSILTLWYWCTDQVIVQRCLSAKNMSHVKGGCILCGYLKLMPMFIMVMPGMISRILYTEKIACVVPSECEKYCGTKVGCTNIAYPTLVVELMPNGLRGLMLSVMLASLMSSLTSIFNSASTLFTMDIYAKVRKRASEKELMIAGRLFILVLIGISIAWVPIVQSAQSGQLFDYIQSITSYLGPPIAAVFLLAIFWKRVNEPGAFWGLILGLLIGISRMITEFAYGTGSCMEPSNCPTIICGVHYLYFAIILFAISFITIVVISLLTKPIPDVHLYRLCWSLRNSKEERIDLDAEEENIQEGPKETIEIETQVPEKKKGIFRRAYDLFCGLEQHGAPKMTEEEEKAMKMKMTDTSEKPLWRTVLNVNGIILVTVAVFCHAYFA
# In short: (§1)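 CHO-K1 cells stably expressing human SGLT1 or SGLT2, induced with 10 mM Na-butyrate for 24 h. Compounds (0.001–10 μM) in Na+-containing HEPES/Tris buffer pH 7.4 were applied for 10 min, then 14C-AMG ([…]) for 2 h at 37°C; Na-dependent uptake read by scintillation; %-inhibition or IC50.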
# human SGLT2 = biological target: T2, human SGLT2 (Homo sapiens, UniProt P31639); assay: SGLT2 in vitro assay: Na-dependent 14C-AMG uptake in CHO-K1 cells stably expressing human SGLT2; format: cell-based; conditions: CHO-K1 cells stably expressing human SGLT2, 14C-AMG uptake; for inhibition at 0.3 µM: read-out: SGLT2 % Inh @ 0.3 μM; for IC50: compounds of formula (I) where R0 is fluoro
# T2 construct: expressed in transfected cells
# T2 sequence (P31639 1-672): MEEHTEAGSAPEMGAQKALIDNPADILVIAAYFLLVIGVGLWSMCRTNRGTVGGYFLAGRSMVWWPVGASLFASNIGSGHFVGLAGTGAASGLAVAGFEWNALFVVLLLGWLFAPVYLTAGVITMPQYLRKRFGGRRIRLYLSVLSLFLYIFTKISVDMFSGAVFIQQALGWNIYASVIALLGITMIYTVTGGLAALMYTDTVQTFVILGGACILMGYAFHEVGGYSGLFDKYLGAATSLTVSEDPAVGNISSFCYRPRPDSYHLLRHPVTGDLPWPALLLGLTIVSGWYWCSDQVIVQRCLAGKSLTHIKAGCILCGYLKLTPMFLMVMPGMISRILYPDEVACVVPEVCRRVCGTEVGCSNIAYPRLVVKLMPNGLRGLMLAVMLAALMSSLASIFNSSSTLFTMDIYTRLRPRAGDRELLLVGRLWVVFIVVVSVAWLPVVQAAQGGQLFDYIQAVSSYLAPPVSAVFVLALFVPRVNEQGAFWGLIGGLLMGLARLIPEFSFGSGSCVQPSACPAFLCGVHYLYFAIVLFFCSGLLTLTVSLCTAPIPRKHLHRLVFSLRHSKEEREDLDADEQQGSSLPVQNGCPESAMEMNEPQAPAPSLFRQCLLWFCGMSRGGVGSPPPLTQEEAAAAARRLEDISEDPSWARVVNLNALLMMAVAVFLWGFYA
# In short: as §1
structure (smiles),measurement,setting,value
COc1ccc(Cc2cc([C@@H]3O[C@H](CO)C(F)(F)[C@H](O)[C@H]3O)c(OC)cc2Cl)cc1 [Compound 87],SGLT1 % Inh @ 0.3 μM,human SGLT1,8.4%
same,SGLT2 % Inh @ 0.3 μM,human SGLT2,76.0%
"CCc1cc(OC)c([C@@H]2O[C@H](CO)C(F)(F)[C@H](O)[C@H]2O)cc1Cc1ccc(OC)cc1 [Compound 89, (2S,3R,4R,6R)-2-[4-ethyl-2-methoxy-5-[(4-methoxyphenyl)methyl]phenyl]-5,5-difluoro-6-(hydroxymethyl)tetrahydropyran-3,4-diol]",inhibition at 0.3 µM,human SGLT1,48.1%
same,IC50,human SGLT1,636 nM
same,inhibition at 0.3 µM,human SGLT2,87.7%
same,IC50,human SGLT2,4.7 nM
COc1ccc(Cc2cc([C@@H]3O[C@H](CO)C(F)(F)[C@H](O)[C@H]3O)c(OC)cc2OC)cc1 [Compound 92],SGLT1 % Inh @ 0.3 μM,human SGLT1,30.2%
same,SGLT2 % Inh @ 0.3 μM,human SGLT2,81.9%
COc1c(Cc2ccc3c(c2)CCCO3)cc([C@@H]2O[C@H](CO)C(F)(F)[C@H](O)[C@H]2O)c2c1CCO2 [Compound 93],SGLT1 % Inh @ 0.3 μM,human SGLT1,34.5%
same,SGLT2 % Inh @ 0.3 μM,human SGLT2,80.4%
CCc1cc(O)c([C@@H]2OC3(CC3)C(F)(F)[C@H](O)[C@H]2O)cc1Cc1ccc2c(c1)OCCO2 [Compound 94],inhibition at 0.3 µM,human SGLT1,73%
same,IC50,human SGLT1,66 nM
same,inhibition at 0.3 µM,human SGLT2,87.8%
same,IC50,human SGLT2,16.4 nM
"Cc1cc(O)c([C@@H]2O[C@H](CO)C(F)(F)[C@H](O)[C@H]2O)cc1Cc1ccc(OC(F)F)cc1 [Compound 96, (2S,3R,4R,6R)-2-[5-[[4-(difluoromethoxy)phenyl]methyl]-2-hydroxy-4-methyl-phenyl]-5,5-difluoro-6-(hydroxymethyl)tetrahydropyran-3,4-diol]",inhibition at 0.3 µM,human SGLT1,49.1%
same,IC50,human SGLT1,318 nM
same,inhibition at 0.3 µM,human SGLT2,81.4%
same,IC50,human SGLT2,4.8 nM
"Cc1cc(O)c([C@@H]2O[C@H](CO)C(F)(F)[C@H](O)[C@H]2O)cc1Cc1ccc(OC(F)(F)F)cc1 [Compound 99, (2S,3R,4R,6R)-5,5-difluoro-2-(2-hydroxy-4-methyl-5-(4-(trifluoromethoxy)benzyl)phenyl)-6-(hydroxymethyl)-tetrahydro-2H-pyran-3,4-diol]",inhibition at 0.3 µM,human SGLT1,17.3%
same,inhibition at 0.3 µM,human SGLT2,84.7%
COc1cc(C)c(Cc2ccc(OC(F)(F)F)cc2)cc1[C@@H]1O[C@H](CO)C(F)(F)[C@H](O)[C@H]1O [Compound 101],SGLT1 % Inh @ 0.3 μM,human SGLT1,30.3%
same,SGLT2 % Inh @ 0.3 μM,human SGLT2,77.2%
Cc1c(Cc2ccc3c(c2)CCCO3)cc([C@@H]2O[C@H](CO)C(F)(F)[C@H](O)[C@H]2O)c2c1CCO2 [Compound 103],SGLT1 % Inh @ 0.3 μM,human SGLT1,26.3%
same,SGLT2 % Inh @ 0.3 μM,human SGLT2,94.7%
CCc1cc(O)c([C@@H]2O[C@H](CO)C(F)(F)[C@H](O)[C@H]2O)cc1Cc1ccc(OC(F)(F)F)cc1 [Compound 104],SGLT1 % Inh @ 0.3 μM,human SGLT1,39.2%
same,SGLT2 % Inh @ 0.3 μM,human SGLT2,82.6%
OC[C@H]1O[C@@H](c2cc(Cc3ccc(OC(F)(F)F)cc3)c(Cl)cc2O)[C@H](O)[C@@H](O)C1(F)F [Compound 105],SGLT1 % Inh @ 0.3 μM,human SGLT1,38.9%
same,SGLT2 % Inh @ 0.3 μM,human SGLT2,91.8%
COc1cc(Cl)c(Cc2ccc(OC(F)(F)F)cc2)cc1[C@@H]1O[C@H](CO)C(F)(F)[C@H](O)[C@H]1O [Compound 106],SGLT1 % Inh @ 0.3 μM,human SGLT1,29.5%
same,SGLT2 % Inh @ 0.3 μM,human SGLT2,92.5%
"COc1ccc(Cc2cc([C@@H]3O[C@H](CO)C(F)(F)[C@H](O)[C@H]3O)c(O)cc2C)cc1 [Compound 108, (2S,3R,4R,6R)-5,5-difluoro-2-[2-hydroxy-5-[(4-methoxyphenyl)methyl]-4-methyl-phenyl]-6-(hydroxymethyl)tetrahydropyran-3,4-diol]",inhibition at 0.3 µM,human SGLT1,66.6%
same,IC50,human SGLT1,70 nM
same,inhibition at 0.3 µM,human SGLT2,94.4%
same,IC50,human SGLT2,1.6 nM
CCc1cc(OC)c([C@@H]2O[C@H](CO)C(F)(F)[C@H](O)[C@H]2O)cc1Cc1ccc(OC(F)(F)F)cc1 [Compound 109],SGLT1 % Inh @ 0.3 μM,human SGLT1,27.4%
same,SGLT2 % Inh @ 0.3 μM,human SGLT2,70.5%
Cc1cc(O)c([C@@H]2O[C@H](CO)C(F)(F)[C@H](O)[C@H]2O)cc1Cc1ccc(Cl)s1 [Compound 110],inhibition at 0.3 µM,human SGLT1,75%
same,IC50,human SGLT1,95 nM
same,inhibition at 0.3 µM,human SGLT2,82.4%
same,IC50,human SGLT2,5.7 nM
"OC[C@H]1O[C@@H](c2cc(Cc3ccc4c(c3)OCC4)c(Cl)cc2O)[C@H](O)[C@@H](O)C1(F)F [Compound 111, (2S,3R,4R,6R)-2-(4-chloro-5-((2,3-dihydrobenzofuran-6-yl)methyl)-2-hydroxyphenyl)-5,5-difluoro-6-(hydroxymethyl)-tetrahydro-2H-pyran-3,4-diol]",inhibition at 0.3 µM,human SGLT1,84%
same,IC50,human SGLT1,57 nM
same,inhibition at 0.3 µM,human SGLT2,85.2%
same,IC50,human SGLT2,0.9 nM
COc1cc(C)c(Cc2ccc(Cl)s2)cc1[C@@H]1O[C@H](CO)C(F)(F)[C@H](O)[C@H]1O [Compound 112],inhibition at 0.3 µM,human SGLT1,43.5%
same,IC50,human SGLT1,1030 nM
same,inhibition at 0.3 µM,human SGLT2,81.1%
same,IC50,human SGLT2,4.5 nM
OC[C@H]1O[C@@H](c2cc(Cc3ccc4c(c3)CCO4)c(Cl)c3c2OCC3)[C@H](O)[C@@H](O)C1(F)F [Compound 114],SGLT1 % Inh @ 0.3 μM,human SGLT1,36.8%
same,SGLT2 % Inh @ 0.3 μM,human SGLT2,80.6%
COc1cc(Cl)c(Cc2ccc3c(c2)OCC3)cc1[C@@H]1O[C@H](CO)C(F)(F)[C@H](O)[C@H]1O [Compound 115],inhibition at 0.3 µM,human SGLT1,50.8%
same,IC50,human SGLT1,326 nM
same,inhibition at 0.3 µM,human SGLT2,86.8%
same,IC50,human SGLT2,0.5 nM
"OC[C@H]1O[C@@H](c2cc(Cc3ccc(OCF)cc3)c(Cl)cc2O)[C@H](O)[C@@H](O)C1(F)F [Compound 116, (2S,3R,4R,6R)-2-(4-chloro-5-{[4-(fluoromethoxy)phenyl]methyl}-2-hydroxyphenyl)-5,5-difluoro-6-(hydroxymethyl)oxane-3,4-diol]",inhibition at 0.3 µM,human SGLT1,65.2%
same,IC50,human SGLT1,122 nM
same,inhibition at 0.3 µM,human SGLT2,85.5%
same,IC50,human SGLT2,4.5 nM
COc1cc(O)c([C@@H]2O[C@H](CO)C(F)(F)[C@H](O)[C@H]2O)cc1Cc1ccc(OC(F)(F)F)cc1 [Compound 119],SGLT1 % Inh @ 0.3 μM,human SGLT1,24.9%
same,SGLT2 % Inh @ 0.3 μM,human SGLT2,79.0%
COc1cc(OC)c([C@@H]2O[C@H](CO)C(F)(F)[C@H](O)[C@H]2O)cc1Cc1ccc(OC(F)(F)F)cc1 [Compound 121],SGLT1 % Inh @ 0.3 μM,human SGLT1,20.2%
same,SGLT2 % Inh @ 0.3 μM,human SGLT2,63.6%
COc1cc(C)c(Cc2ccc(C3CC3)cc2)cc1[C@@H]1O[C@H](CO)C(F)(F)[C@H](O)[C@H]1O [Compound 123],SGLT1 % Inh @ 0.3 μM,human SGLT1,30.6%
same,SGLT2 % Inh @ 0.3 μM,human SGLT2,89.3%
"Cc1cc(O)c([C@@H]2O[C@H](CO)C(F)(F)[C@H](O)[C@H]2O)cc1Cc1ccc(C2CC2)cc1 [Compound 124, (2S,3R,4R,6R)-2-(5-(4-cyclopropylbenzyl)-2-hydroxy-4-methylphenyl)-5,5-difluoro-6-(hydroxymethyl)-tetrahydro-2H-pyran-3,4-diol]",inhibition at 0.3 µM,human SGLT1,75.5%
same,IC50,human SGLT1,158 nM
same,inhibition at 0.3 µM,human SGLT2,90.3%
same,IC50,human SGLT2,1 nM
OC[C@H]1O[C@@H](c2cc(Cc3ccc(OCF)cc3)c(Cl)cc2O)[C@H](O)[C@@H](O)C1(F)F [Compound 125],SGLT1 % Inh @ 0.3 μM,human SGLT1,32.9%
same,SGLT2 % Inh @ 0.3 μM,human SGLT2,90.2%
OC[C@H]1O[C@@H](c2cc(Cc3ccc4c(c3)CCCO4)c(Cl)c3c2OCC3)[C@H](O)[C@@H](O)C1(F)F [Compound 126],SGLT1 % Inh @ 0.3 μM,human SGLT1,28.7%
same,SGLT2 % Inh @ 0.3 μM,human SGLT2,87.1%
"CCc1ccc(Cc2cc([C@@H]3O[C@H](CO)C(F)(F)[C@H](O)[C@H]3O)c(O)cc2Cl)cc1 [Compound 127, (2S,3R,4R,6R)-2-{4-chloro-5-[(4-ethylphenyl)methyl]-2-hydroxyphenyl}-5,5-difluoro-6-(hydroxymethyl)oxane-3,4-diol]",inhibition at 0.3 µM,human SGLT1,67.6%
same,IC50,human SGLT1,142 nM
same,inhibition at 0.3 µM,human SGLT2,89.2%
same,IC50,human SGLT2,2.6 nM

# Source: US20210238170A1, “5,5-Difluoro- and 5-Fluoro-5-Methyl-C-Glycoside Derivatives Useful As Dual SGLT1 / SGLT2 Modulators” (Janssen Pharmaceutica NV, priority 2018, published 2021)
